Test results taken from EP0298135A1, “Phenylalanine derivative and proteinase inhibitor” (Okamoto, Shosuke, priority 1987, dated 1989).
Where a name gives a salt, the structure may show the parent alone.

Columns and labels:
Format in all cases: biochemical
[1] = molecular target: T1, bovine trypsin (Bos taurus, UniProt P00760); assay: Antitrypsin activity: inhibition of S-2238 decomposition; settings: Table 2; substrate S-2238, pH 8.1, 37°C; read-out: Trypsin S-2238 (concentration I₅₀)
T1 sequence (P00760 24-246): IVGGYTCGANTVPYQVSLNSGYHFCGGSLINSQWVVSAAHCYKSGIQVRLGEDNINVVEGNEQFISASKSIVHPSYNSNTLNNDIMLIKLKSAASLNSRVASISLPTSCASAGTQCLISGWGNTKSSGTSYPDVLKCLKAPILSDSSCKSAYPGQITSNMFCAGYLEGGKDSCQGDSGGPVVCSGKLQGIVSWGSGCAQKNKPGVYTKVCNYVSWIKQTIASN
Experimental: Determination of inhibition activity against S-2238 decomposition An inhibitor sample is dissolved in a 0.05 M Tris-imidazole buffer solution (pH = 8.l) and l25 µl of a l mM S-2238 solution is added to bring the total volume to l.20 ml. The mixture is incubated at a temperature of 37°C for 5 minutes in a constant temperature bath. To this mixture, 0.05 ml of bovine trypsin is added and the absorbance, at 405 nm, of the p-nitroaniline formed per minute is determined at a temperature of 37°C by using the so-called initial velocity method. Thus, the concentration I₅₀ (µmol) of the inhibitor sample, at which the absorbance is one half (i.e., l/2) of that obtained in the absence of the inhibitor sample, is determined.

[2] = molecular target: T2, human plasmin (Homo sapiens, UniProt P00747); assay: Antiplasmin activity: inhibition of S-2251 decomposition; settings: Table 2; substrate S-2251, pH 7.4, 37°C; read-out: Plasmin S-2251 (concentration I₅₀)
Experimental: (ii) Determination of inhibition activity on S-225l decomposition
An inhibitor sample is dissolved in a 0.05 M Tris-hydrochloric acid buffer solution (pH = 7.4) to bring the total volume to 400 µl. To this solution, 50 µl of a 3 mM S-225l solution is added and the mixture is incubated at a temperature of 37°C for 5 minutes in a constant temperature bath. Then 50 µl of a 0.2 casein unit/ml human plasmin is added and the mixture is incubated at a temperature of 37°C for 4 minutes. Thereafter, the reaction is stopped by adding 50 µl of 50% acetic acid.
Thus, the concentration I₅₀ (µmol) of the inhibitor sample, at which the absorbance is one half (i.e., l/2) of that obtained in the absence of the inhibitor, is determined.

[3] = molecular target: human plasma kallikrein (Homo sapiens, UniProt P03952); assay: Anti-plasma kallikrein activity: inhibition of S-2302 decomposition; settings: Table 2; substrate S-2302, pH 7.8, 37°C; read-out: Plasma Kallikrein S-2302 (concentration I₅₀)
Experimental: An inhibitor sample is dissolved in a 0.05 M Tris-hydrochloric acid buffer solution (pH = 7.8) to bring the total volume to 400 µl. […] Then, 50 µl of a 0.l2 unit/ml human plasma kallikrein is added and the mixture is incubated at a temperature of 37°C for 5 minutes. Thereafter, 50 µl of 50% acetic acid is added to terminate the reaction. […] Thus, the concentration I₅₀ (µmol) of the inhibitor sample, at which the absorbance is one half (i.e., l/2) of that obtained in the absence of the inhibitor sample, is determined.

[4] = molecular target: T2, human plasmin; assay: Antiplasmin activity: inhibition of fibrin decomposition; settings: Table 2; concentration at which fibrin dissolution time is extended twice, pH 7.4, 37°C; read-out: Plasmin Fibrin (concentration I₅₀)
Experimental: (i) Determination of inhibition activity on fibrin decomposition
An inhibitor sample is dissolved in a 0.l8 M borate-physiological salt buffer solution (pH = 7.4) to bring the total volume to 600 µl. To this buffer solution, 200 µl of a 0.2% bovine fibrinogen, l00 µl of a 0.3 casein unit/ml human plasmin solution, and l00 µl of a 50 unit/ml bovine thrombin solution, all dissolved in the above-mentioned buffer, are added at a temperature of 37°C in a constant temperature bath. The dissolution time of the fibrin mass formed above is then determined.

[5] = molecular target: T3, bovine thrombin (Bos taurus, UniProt P00735); assay: Antithrombin activity: inhibition of S-2238 decomposition
Experimental: (ii) Determination of inhibition activity on S-2238 decomposition
An inhibitor sample is dissolved in a 0.05 M Tris-hydrochloric acid buffer solution (pH = 8.3) to bring the a total volume to 400 µl. To this solution, 50 µl of a 0.2 mM S-2238 solution is added and the mixture is incubated at a temperature of 37°C for 5 minutes in a constant temperature bath. Then 50 µl of a 0.2 unit/ml bovine thrombin solution is added thereto and the absorbance, at 405 nm, of the p-nitroaniline formed per minute is determined at a temperature of 37°C by using the so-called initial velocity method. Thus, the concentration I₅₀ (µmol) of the inhibitor sample, at which the absorbance is one half (i.e., l/2) of that obtained in the absence of the inhibitor sample, is determined.

[6] = molecular target: human urokinase (Homo sapiens, UniProt P00749); assay: Antiurokinase activity: inhibition of S-2444 decomposition; settings: Table 2; substrate S-2444, pH 8.8, 37°C; read-out: Urokinase S-2444 (concentration I₅₀)
Experimental: Determination of inhibition activity for S-2444 decomposition
An inhibitor sample is dissolved in a 0.05 M Tris-hydrochloric acid buffer solution (pH = 8.8) to bring the total volume to 400 µl. To this solution, 50 µl of a l mM S-2444 solution is added and the mixture is incubated at a temperature of 37°C for 5 minutes in a constant temperature bath. Then 50 µl of a 500 unit/ml human urokinase is added and the mixture is incubated at a temperature of 37°C for 5 minutes. Thereafter, 50 µl of 50% acetic acid is added to terminate the reaction. The absorbance of the p-nitroaniline formed in the reaction mixture is measured at 405 nm. Thus, the concentration I₅₀ (µmol) of the inhibitor sample, at which the absorbance is one half (i.e., l/2) of that obtained in the absence of the inhibitor sample, is determined.

[7] = molecular target: T3, bovine thrombin; assay: Antithrombin activity: inhibition of fibrin formation from fibrinogen
Experimental: (i) Determination of inhibition activity against fibrin formation
An inhibitor sample is dissolved in a 0.l8 M borate-physiological salt buffer solution (pH = 7.4) to bring the total volume to 500 µl. To this solution, 400 µl of a 0.2% bovine fibrinogen solution and l00 µl of a 4 unit/ml bovine thrombin solution are added at a temperature of 37°C in a constant temperature bath. Thus, a coagulation time is determined. The inhibitor concentration I₅₀ (µmol), at which the coagulation time obtained in the absence of the inhibitor is extended twice, is determined.

T2 sequence (P00747 581-810 limits assumed): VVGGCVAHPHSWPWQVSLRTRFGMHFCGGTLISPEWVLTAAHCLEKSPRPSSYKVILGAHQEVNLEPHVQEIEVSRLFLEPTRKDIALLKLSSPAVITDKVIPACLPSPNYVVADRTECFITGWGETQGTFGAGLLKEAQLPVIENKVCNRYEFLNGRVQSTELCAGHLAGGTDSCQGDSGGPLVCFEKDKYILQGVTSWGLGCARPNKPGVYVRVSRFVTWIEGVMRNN
T2 sequence (P00747 97-580 partner limits assumed): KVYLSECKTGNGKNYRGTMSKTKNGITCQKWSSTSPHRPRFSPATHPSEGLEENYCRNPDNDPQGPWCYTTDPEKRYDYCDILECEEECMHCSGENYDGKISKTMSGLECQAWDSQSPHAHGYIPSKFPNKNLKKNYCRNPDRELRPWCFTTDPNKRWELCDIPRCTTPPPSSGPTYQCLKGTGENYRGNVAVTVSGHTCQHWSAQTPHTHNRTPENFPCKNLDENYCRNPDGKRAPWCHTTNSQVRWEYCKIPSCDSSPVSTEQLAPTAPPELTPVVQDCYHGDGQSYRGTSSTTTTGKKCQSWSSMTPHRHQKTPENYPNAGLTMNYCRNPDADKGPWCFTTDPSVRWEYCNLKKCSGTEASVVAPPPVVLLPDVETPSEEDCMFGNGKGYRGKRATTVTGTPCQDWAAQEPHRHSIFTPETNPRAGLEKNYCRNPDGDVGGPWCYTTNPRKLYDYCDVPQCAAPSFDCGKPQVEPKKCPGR
Chain of human plasma kallikrein (P03952 391-638 limits assumed): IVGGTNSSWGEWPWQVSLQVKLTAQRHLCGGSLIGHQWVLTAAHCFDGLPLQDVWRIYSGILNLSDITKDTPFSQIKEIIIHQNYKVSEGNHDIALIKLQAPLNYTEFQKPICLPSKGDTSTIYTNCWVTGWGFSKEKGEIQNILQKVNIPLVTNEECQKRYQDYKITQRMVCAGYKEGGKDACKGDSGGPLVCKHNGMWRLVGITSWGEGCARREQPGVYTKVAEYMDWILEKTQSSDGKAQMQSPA
Chain of human plasma kallikrein (P03952 20-390 partner limits assumed): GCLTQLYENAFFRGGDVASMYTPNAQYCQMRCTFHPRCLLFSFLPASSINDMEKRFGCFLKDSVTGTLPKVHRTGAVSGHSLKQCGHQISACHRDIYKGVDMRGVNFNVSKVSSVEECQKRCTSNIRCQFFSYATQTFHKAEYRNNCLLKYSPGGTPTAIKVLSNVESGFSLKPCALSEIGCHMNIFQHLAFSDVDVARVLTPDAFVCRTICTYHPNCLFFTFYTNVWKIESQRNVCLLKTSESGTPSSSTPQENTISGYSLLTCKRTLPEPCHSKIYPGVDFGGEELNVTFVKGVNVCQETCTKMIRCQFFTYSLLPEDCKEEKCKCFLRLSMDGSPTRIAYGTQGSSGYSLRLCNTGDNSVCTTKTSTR

Compound | IC50 [1] [µM] | IC50 [2] [µM] | IC50 [3] [µM] | IC50 [4] [µM] | IC50 [5] [µM] | IC50 [6] [µM] | IC50 [7] [µM] | IC50 ([7]; Table 2, concentration at which coagulation time is extended twice, bovine fibrinogen, pH 7.4, 37°C, read-out: Thrombin Fibrinogen (concentration I₅₀)) [µM]
CC1CCC(NC(=O)[C@H](Cc2ccccc2)NC(=O)c2ccc(NC(=N)N)cc2)CC1C (some centres unmarked) [compound 21] | 6 | 450 | 15 |  | 400 | 740 | > 100 | 
COc1ccc(NC(=O)[C@H](Cc2ccc(OCc3ccccc3)cc2)NC(=O)c2ccc(NC(=N)N)cc2)cn1 [compound 25] | 17 | 160 | 12 | 48 |  |  | > 100 | 
CCOC(=O)CC(O)CNC(=O)[C@H](Cc1ccccc1)NC(=O)CCCCN (some centres unmarked) [Compound No. 3] |  | > 1000 |  | > 1000 | > 1000 | > 1000 | > 1000 | 
NCCCCCC(=O)N[C@@H](Cc1ccc(O)cc1)C(=O)Nc1ccc(C(=O)c2ccccc2)cc1 [compound 7] |  | > 100 | > 120 |  | > 180 | 120 | > 120 | 
CN(Cc1ccncc1)C(=O)[C@H](Cc1ccccc1)NC(=O)c1ccc(NC(=N)N)cc1 [compound 19] |  | > 1000 | 1000 | > 1000 |  |  | > 1000 | 
CN(Cc1ccccc1)C(=O)[C@H](Cc1ccc(OCc2ccccc2)cc1)NC(=O)c1ccc(NC(=N)N)cc1 [compound 28] | 110 | 140 | 170 |  |  |  |  | 
N=C(N)Nc1ccc(C(=O)N[C@@H](Cc2ccccc2)C(=O)Nc2ccc(C(=O)c3ccccc3)cc2)cc1 [compound 16] | 1.5 |  | 3.6 |  |  | 40 |  | 
CN(Cc1ccncc1)C(=O)[C@H](Cc1ccccc1)NC(=O)CCCCCN [Compound No. 6, N-(6-aminocaproyl)-L-phenylalanine N-methyl-(4-pycoryl)amide dihydrochloride] |  | > 1000 | > 1000 | > 1000 | > 500 | > 500 |  | 
N=C(N)NC[C@H]1CC[C@H](C(=O)N[C@@H](Cc2ccc([N+](=O)[O-])cc2)C(=O)Nc2ccc(C(=O)c3ccccc3)cc2)CC1 [compound 31, N-(trans-4-guanidinomethylcyclohexylcarbonyl)-4-nitro-L-phenylalanine 4-benzoylanilide methane sulfonate] |  | > 100 | > 100 |  |  | > 100 |  | 
COc1ccc(NC(=O)[C@H](Cc2ccccc2)NC(=O)c2ccc(NC(=N)N)cc2)cn1 [compound 18] | 35 |  | 12 |  | > 1000 | 630 | > 1000 | 
COc1ccc(NC(=O)[C@H](Cc2ccccc2)NC(=O)c2ccc(CCN)cc2)cn1 [compound 10, N-[4-(2-aminoethyl)benzoyl]-L-phenylalanine 3-(6-methoxypyridyl)amide dihydrochloride] |  | 830 | 85 | 970 |  |  |  | 
Cc1ccc(NC(=O)[C@H](Cc2ccccc2)NC(=O)c2ccc(NC(=N)N)cc2)cc1 [compound 13, N-(4-guanidinobenzoyl)-L-phenylalanine 4-methylanilide hydrochloride] | 1.3 | > 1000 | 4.2 | > 200 |  | 420 |  | 

Continued by falling IC50 [2], values first:

IC50 [1] [µM] | IC50 [2] [µM] | IC50 [3] [µM] | IC50 [4] [µM] | IC50 [5] [µM] | IC50 [6] [µM] | IC50 [7] [µM] | IC50 ([7]; Table 2, concentration at which coagulation time is extended twice, bovine fibrinogen, pH 7.4, 37°C, read-out: Thrombin Fibrinogen (concentration I₅₀)) [µM] | Compound
15 | 140 | 45 | 73 |  | 310 |  | > 100 | N-(4-guanidinobenzoyl)-L-phenylalanine 4-cis/trans-methylcyclohexylamide hydrochloride [Compound No. 20]
17 | 120 | 56 | 82 |  |  |  |  | N=C(N)NCCCC(=O)N[C@@H](Cc1ccc([N+](=O)[O-])cc1)C(=O)Nc1ccc(C(=O)c2ccccc2)cc1 [compound 29]
0.43 | 89 | 11 |  |  | 11 |  |  | N=C(N)Nc1ccc(C(=O)N[C@@H](Cc2ccc([N+](=O)[O-])cc2)C(=O)Nc2ccc(C(=O)c3ccccc3)cc2)cc1 [Compound No. 23, N-(4-guanidinobenzoyl)-4-nitro-L-phenylalaninine 4-benzoylanilide methanesulfonate]
> 200 | 39 |  |  |  |  |  |  | NCCCCCC(=O)N[C@@H](Cc1ccccc1)C(=O)Nc1ccc(C(=O)c2ccccc2)cc1 [compound 4]
16 | 30 | 31 |  |  | 100 |  |  | NCCc1ccc(C(=O)N[C@@H](Cc2ccccc2)C(=O)Nc2ccc(C(=O)c3ccccc3)cc2)cc1 [compound 9]
 | 23 |  |  | > 200 |  |  |  | NCCCC(=O)N[C@@H](Cc1ccccc1)C(=O)Nc1ccc(C(=O)c2ccccc2)cc1 [compound 1]
3.6 | 23 | 0.8 | 21 |  | 13 |  |  | CC(=O)c1ccc(NC(=O)[C@H](Cc2ccccc2)NC(=O)c2ccc(C(=N)N)cc2)cc1 [compound 11, N-(4-amidinobenzoyl)-L-phenylalanine 4-acetylanilide hydroiodic acid]
9.1 | 21 | 5.7 | 16 |  | 240 |  |  | Cc1ccc(NC(=O)[C@H](Cc2ccc(OCc3ccccc3)cc2)NC(=O)c2ccc(NC(=N)N)cc2)cc1C [compound 24]
0.75 | 2.2 | 0.3 | 0.98 |  | 4 |  |  | CC(=O)c1ccc(NC(=O)[C@H](Cc2ccc(OCc3ccccc3)cc2)NC(=O)c2ccc(C(=N)N)cc2)cc1 [compound 12, N-(4-amidinobenzoyl)-4-benzyloxy-L-phenylalanine 4-acetylanilide hydroiodic acid]
